Like-named read-outs stand apart in the source and are kept apart here.
Key:
[1] = system: P. falciparum Dd2 (PfLuc) line expressing firefly luciferase, asexual blood stage; experiment: microbe, parasite or virus in culture; type: cell-based, Plasmodium falciparum
P. falciparum Dd2 = experiment: SYBR green I asexual blood stage proliferation assay (96 h); type: cell-based, Plasmodium falciparum; conditions: Plasmodium falciparum
[2] = Plasmodium falciparum, DD2, read-out: CDD P. falciparum Luciferase ABS 11-pt Reconfirmation Dose Response (48hr): IC50 (μM), 11-pt dose response, 48hr
[3] = Plasmodium falciparum, DD2, 8-pt dose response, 96hr, read-out: CDD P. falciparum Luciferase ABS 8-pt Reconfirmation Dose Response (96hr): IC50
[4] = Plasmodium falciparum, DD2, 8-pt dose response, 96hr, read-out: CDD P. falciparum Luciferase ABS 8-pt Reconfirmation Dose Response (96hr): Maximum inhibition (%)
[5] = Plasmodium falciparum, DD2, 11-pt dose response, 48hr, read-out: CDD P. falciparum Luciferase ABS 11-pt Reconfirmation Dose Response (48hr): Maximum inhibition (%)
[6] = Plasmodium falciparum, DD2, 11-pt dose response, 96hr, read-out: CDD P. falciparum Luciferase ABS 11-pt Reconfirmation Dose Response (96hr): IC50
[7] = Plasmodium falciparum, DD2, 11-pt dose response, 96hr, read-out: CDD P. falciparum Luciferase ABS 11-pt Reconfirmation Dose Response (96hr): Maximum inhibition (%)
[8] = Plasmodium falciparum, DD2, 8-pt dose response, 96hr, read-out: P. falciparum Luciferase ABS 8-pt Reconfirmation Dose Response (96hr): IC50
[9] = Plasmodium falciparum, DD2, 8-pt dose response, 96hr, read-out: P. falciparum Luciferase ABS 8-pt Reconfirmation Dose Response (96hr): Maximum inhibition (%)
[10] = Plasmodium falciparum, DD2, read-out: P. falciparum Luciferase ABS 11-pt Reconfirmation Dose Response (48hr): IC50, 11-pt dose response, 48hr
[11] = Plasmodium falciparum, DD2, 11-pt dose response, 48hr, read-out: P. falciparum Luciferase ABS 11-pt Reconfirmation Dose Response (48hr): Maximum inhibition (%)
[12] = Plasmodium falciparum, DD2, 11-pt dose response, 96hr, read-out: P. falciparum Luciferase ABS 11-pt Reconfirmation Dose Response (96hr): IC50
[13] = Plasmodium falciparum, DD2, 11-pt dose response, 96hr, read-out: P. falciparum Luciferase ABS 11-pt Reconfirmation Dose Response (96hr): Maximum inhibition (%)

| Molecule | IC50 [1, 8] [µM] | Emax [1, 9] [%] | also measured |
| --- | --- | --- | --- |
| COc1cc(CNCC(O)c2ccc(F)c(F)c2)cc2c1OCO2 (centres unmarked) [DDD00408586] |  |  | IC50 [1, 2]: 2.05 µM; IC50 [1, 3]: 0.55 µM; Emax [1, 4]: 90.7%; Emax [1, 5]: 96.5%; IC50 [1, 6]: 1.22 µM; Emax [1, 7]: 99.5%; IC50 (P. falciparum Dd2; DD2, Sybr Green I, 11-pt dose response, 96hr, read-out: CDD P. falciparum Sybr Green I ABS 11-pt Reconfirmation Dose Response (96hr): IC50): 1.89 µM; Emax (P. falciparum Dd2; DD2, Sybr Green I, 11-pt dose response, 96hr, read-out: CDD P. falciparum Sybr Green I ABS 11-pt Reconfirmation Dose Response (96hr): Maximum inhibition (%)): 97.2% |
| CCC(NCc1ccccc1C)c1ccccc1OCC(=O)NC (centres unmarked) [DDD01075651] |  |  | IC50 [1, 2]: > 12.5 µM; IC50 [1, 3]: 0.85 µM; Emax [1, 4]: 76.9%; Emax [1, 5]: 60.7%; IC50 [1, 6]: 2.43 µM; Emax [1, 7]: 84.1% |
| CCC(NCc1cccc(Cl)c1)c1ccccc1OCC(=O)NC (centres unmarked) [DDD01075652] | 1.31 | 76.5 |  |
| CC(C)Oc1ccc(C(O)CNCc2ccccc2C(F)(F)F)cc1 (centres unmarked) [DDD01076007] | 1.5 | 80.1 |  |
| Cc1cnn(CCCNCc2csc(COc3ccccc3)n2)c1 [DDD01077297] | 1.25 | 85.8 | IC50 [1, 10]: 7.24 µM; Emax [1, 11]: 63.7%; IC50 [1, 12]: 1.2 µM; Emax [1, 13]: 86.7% |
| CO[C@@H]1CCN(Cc2ccoc2)C[C@@H]1Cc1ccccc1 [DDD01081909] |  |  | IC50 [1, 3]: 1.08 µM; Emax [1, 4]: 85.9% |
| FC1(F)CCN(Cc2cccnc2)CC12CCN(c1ccccc1)C2 (centres unmarked) [DDD01082961] | 1.65 | 91.5 |  |
| Fc1cnc(N2CCCC3(CCN(Cc4ccoc4)C3)C2)nc1 (centres unmarked) [DDD01084184] | 1.79 | 83.1 |  |
| CC(C)[C@H](CO)Nc1nccc(-c2c[nH]nc2-c2ccncc2)n1 [DDD01235869] | 1.69 | 82 |  |
| CC(Nc1nc(-c2ccccc2)nc2c1CCNCC2)c1cccnc1 (centres unmarked) [DDD01244613] | 1.58 | 92.9 |  |
| Cc1ncc(CN(C)C2CCCN(CCc3ccccc3)C2)n1C (centres unmarked) [DDD01244648] |  |  | IC50 [1, 2]: 6.24 µM; IC50 [1, 3]: 0.88 µM; Emax [1, 4]: 88.5%; Emax [1, 5]: 55.1%; IC50 [1, 6]: 1.78 µM; Emax [1, 7]: 88.7% |
| CC(C)=CCN1CCC2(CC1)c1ccccc1[C@@H](N1CCSCC1)[C@@H]2O [DDD01245335] | 1.31 | 82.4 |  |
| Cn1cc(CN2CCCC(CCc3ccc(F)cc3)C2)cn1 (centres unmarked) [DDD01246631] | 1.75 | 84.6 |  |
| CC(C)(C)n1cc(C2=CCN(CCN3CCCCCC3)CC2)cn1 [DDD01248990] | 1.53 | 78.1 |  |
| COc1ccc2[nH]c(CNc3cc(C4CCNCC4)nc(C)n3)cc2c1 [DDD01249030] | 1.88 | 88 |  |
| CN1CCC(N(C)C[C@H]2CC[C@@H](Cc3ccc4occc4c3)O2)CC1 [DDD01250070] | 1.57 | 82.8 |  |
| C=Cc1cccc(CN2C[C@@H](CN(C)CC)[C@@H](CO)C2)c1 [DDD01250237] | 1.27 | 83.3 |  |
| C[C@@H]1CN(C(=O)C2CCS(=O)(=O)CC2)CC[C@@]1(O)C1CCOCC1 [DDD01250493] | 1.67 | 82.2 |  |
| O=C(CCN1CCCC(CO)(CC2CC2)C1)NCc1cccc(Cl)c1 (centres unmarked) [DDD01250518] | 1.83 | 81.8 |  |
| COc1ccccc1CCN1CCCC(CN(C)Cc2ccc(C)o2)C1 (centres unmarked) [DDD01250738] | 1.36 | 86.1 |  |
| COc1ccnc(CN2CCCC(CCc3ccccc3)C2)c1OC (centres unmarked) [DDD01250826] | 1.26 | 92.5 | IC50 [1, 10]: 1.41 µM; Emax [1, 11]: 93%; IC50 [1, 12]: 0.447 µM; Emax [1, 13]: 99.3% |
| Cn1cc(CN2CCCC(CCc3ccc(F)cc3F)C2)cn1 (centres unmarked) [DDD01251707] | 1.69 | 81 |  |

| Molecule | IC50 [1, 8] [µM] | Emax [1, 9] [%] | also measured |
| --- | --- | --- | --- |
| Cc1ccccc1CN(CCN(C)C)Cc1ccc(S(C)(=O)=O)cc1 [DDD01251767] | 1.52 | 76.8 |  |
| COc1cccc(OC)c1CN1CC(=O)N(c2ccc(C)cc2)CC1C (centres unmarked) [DDD01252418] | 1.26 | 89.5 | IC50 [1, 10]: 3.67 µM; IC50 [1, 12]: 1.8 µM; Emax [1, 13]: 93.6% |
| Cc1nc(-c2cc(Cl)c3c(c2)CC(CN)O3)c[nH]1 (centres unmarked) [DDD01252814] | 2.18 | 88.7 |  |
| CCC[C@H]1CN(c2nc(CO)cs2)C[C@@H]1NC(=O)C1(COC)CC1 [DDD01253377] | 1.81 | 80.7 |  |
| Cc1cc(S(=O)(=O)NCC2CNCCOC2)c(C)cc1Cl (centres unmarked) [DDD01253448] | 1.24 | 89.3 | IC50 [1, 10]: > 4.16 µM; Emax [1, 11]: 24.9%; IC50 [1, 12]: 1.64 µM; Emax [1, 13]: 89% |
| Cc1cccnc1CC(C)NC1Cc2ccccc2C1 (centres unmarked) [DDD01255733] | 1.76 | 81.8 |  |
| Cc1c(C(=O)N2CCC(N3CCCCC3)CC2)n(C)c2ccc(Cl)cc12 [DDD01255900] |  |  | IC50 [1, 2]: 3.56 µM; IC50 [1, 3]: 1.11 µM; Emax [1, 4]: 93.8%; Emax [1, 5]: 96.3%; IC50 [1, 6]: 1.7 µM; Emax [1, 7]: 98.9% |
| c1ccc2sc(N3CCCN(c4ncnc5c4CCNC5)CC3)nc2c1 [DDD01257073] | 1.83 | 84 |  |
| O=C(c1ccc(F)c(Cl)c1)N1C[C@H]2CC[C@@H](C1)N(Cc1ccccc1)C2 [DDD01257805] | 1.16 | 85.8 | IC50 [1, 10]: 5.31 µM; Emax [1, 11]: 91.8%; IC50 [1, 12]: 2.39 µM; Emax [1, 13]: 97.8% |
| Cc1cc(F)ccc1CN1CCC(O)(CN2CCCCC2)C1 (centres unmarked) [DDD01258113] | 1.22 | 83.7 |  |
| CCC1CN(C(=O)c2ccc(Cl)cc2O)CCN1C(C)C (centres unmarked) [DDD01258121] | 2.57 | 80.5 |  |
| CN1CCCC(c2cccc(Cc3ccccc3Cl)n2)C1 (centres unmarked) [DDD01270191] | 1.72 | 80.2 |  |
| CCN1CCCC(CNC(=O)C2(c3cc(C)cc(C)c3)CCC2)C1 (centres unmarked) [DDD01296287] | 1.39 |  |  |
| CC(O)CN1CCC(CNCc2ccc(OC(F)(F)F)cc2)CC1 (centres unmarked) [DDD01297562] | 1.25 | 90.4 |  |
| CN1CCCC1CNC(=O)CCCOc1cccc(Br)c1 (centres unmarked) [DDD01297989] | 1.4 | 83.9 |  |
| CCN(CC)C(CNC(=O)c1c(C)noc1C(C)C)c1ccsc1 (centres unmarked) [DDD01298744] |  |  | IC50 [1, 3]: 0.96 µM; Emax [1, 4]: 85.7% |
| c1cnnc(N2CCCC2CNc2ncnc3sccc23)c1 (centres unmarked) [DDD01299704] | 1.61 | 92.3 |  |
| CN(Cc1ncc(C(C)(C)C)o1)CC1CCCN1c1cccnn1 (centres unmarked) [DDD01301524] | 1.81 |  |  |
| C[C@@H]1CC[C@H]2[C@@H](C)C(=O)O[C@@H]3O[C@@]4(C)CC[C@@H]1[C@]32OO4 [artemisinin, reference compound] |  |  | inhibition at 10 µM ([1]; Plasmodium falciparum, DD2, 96 h, control at 10 μM, read-out: mean inhibition of positive control in ABS primary screen): 99.6 ± 1.03% |
| CCC[C@@H]1C[C@@H](C(=O)N[C@@H]([C@H]2O[C@H](SC)[C@H](O)[C@@H](O)[C@H]2O)[C@H](C)Cl)N(C)C1 [clindamycin, reference compound] |  |  | IC50 (P. falciparum Dd2; 96 h, Dd2, read-out: 96 h SYBR green ABS IC50): > 10 µM |
| Doxycycline [reference compound] |  |  | IC50 ([1]; 96 h incubation, Dd2 luciferase, read-out: 96 hour Pfluc IC50): 0.55 ± 0.2 µM; IC50 ([1]; read-out: 48 hour Pfluc IC50, 48 h incubation, Dd2 luciferase): 7.18 ± 1.59 µM |
